In publication PMC7646624 (European journal of medicinal chemistry, 2020):
Entries after “also recorded” stand apart in the source; their conditions may differ.

What was measured:
SUV39H2 = SUV39H2 (Homo sapiens, UniProt Q9H5I1); experiment: Methyltransferase profiling; assay type: biochemical
[1] = tested on: panel of Methyltransferases; experiment: Methyltransferase profiling; assay type: biochemical; settings: omitted from Table 2
PRMT3 = PRMT3 (Homo sapiens, UniProt O60678); experiment: biochemical
PRMT3, sequence (O60678 whole entry): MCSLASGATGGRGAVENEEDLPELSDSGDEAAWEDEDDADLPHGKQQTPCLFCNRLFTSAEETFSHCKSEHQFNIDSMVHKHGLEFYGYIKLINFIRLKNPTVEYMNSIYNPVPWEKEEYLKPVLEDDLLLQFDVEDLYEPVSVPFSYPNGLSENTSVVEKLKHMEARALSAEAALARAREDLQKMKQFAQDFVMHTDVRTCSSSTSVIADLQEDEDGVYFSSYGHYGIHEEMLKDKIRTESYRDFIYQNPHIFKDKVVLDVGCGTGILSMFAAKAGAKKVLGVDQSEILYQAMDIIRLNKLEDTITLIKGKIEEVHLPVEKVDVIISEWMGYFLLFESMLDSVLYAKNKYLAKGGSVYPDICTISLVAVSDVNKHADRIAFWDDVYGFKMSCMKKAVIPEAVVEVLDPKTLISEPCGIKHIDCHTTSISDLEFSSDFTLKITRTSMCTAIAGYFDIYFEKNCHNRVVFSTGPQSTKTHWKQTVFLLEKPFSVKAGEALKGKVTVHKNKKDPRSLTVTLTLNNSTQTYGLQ

PRMT6 = PRMT6 (Homo sapiens, UniProt Q96LA8); experiment: Methyltransferase profiling; assay type: biochemical
PRMT6, sequence (Q96LA8 whole entry): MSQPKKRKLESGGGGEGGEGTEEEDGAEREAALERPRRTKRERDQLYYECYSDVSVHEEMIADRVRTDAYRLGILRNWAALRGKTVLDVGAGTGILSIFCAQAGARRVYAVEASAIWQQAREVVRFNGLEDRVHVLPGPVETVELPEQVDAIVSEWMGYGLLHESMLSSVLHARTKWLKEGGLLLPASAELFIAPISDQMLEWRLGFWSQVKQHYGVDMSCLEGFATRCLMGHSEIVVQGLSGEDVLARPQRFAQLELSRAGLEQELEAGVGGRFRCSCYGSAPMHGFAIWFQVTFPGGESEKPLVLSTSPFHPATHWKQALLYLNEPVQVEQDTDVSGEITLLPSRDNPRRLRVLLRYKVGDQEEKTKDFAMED

PRMT4 = biological target: T1, PRMT4 (Homo sapiens, UniProt Q86X55); experiment: Methyltransferase profiling; assay type: biochemical
T1 sequence (Q86X55 1-608): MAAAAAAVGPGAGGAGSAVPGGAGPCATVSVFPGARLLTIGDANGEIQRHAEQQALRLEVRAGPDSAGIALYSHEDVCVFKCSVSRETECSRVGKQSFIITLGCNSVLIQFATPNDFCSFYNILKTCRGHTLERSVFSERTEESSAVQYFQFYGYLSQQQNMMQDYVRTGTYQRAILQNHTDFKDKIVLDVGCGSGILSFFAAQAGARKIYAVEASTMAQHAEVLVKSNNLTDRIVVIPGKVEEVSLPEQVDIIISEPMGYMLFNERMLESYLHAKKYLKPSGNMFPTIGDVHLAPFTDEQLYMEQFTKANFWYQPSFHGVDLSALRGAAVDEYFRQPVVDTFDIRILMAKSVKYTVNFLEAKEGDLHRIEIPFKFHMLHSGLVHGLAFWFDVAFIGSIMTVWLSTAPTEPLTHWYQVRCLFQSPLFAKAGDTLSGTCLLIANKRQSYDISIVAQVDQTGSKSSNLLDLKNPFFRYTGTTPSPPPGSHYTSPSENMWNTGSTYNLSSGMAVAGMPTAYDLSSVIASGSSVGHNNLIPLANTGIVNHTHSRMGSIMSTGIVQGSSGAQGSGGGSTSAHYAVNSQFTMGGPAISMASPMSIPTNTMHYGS

PRMT1 = PRMT1 (Homo sapiens, UniProt Q99873); experiment: Methyltransferase profiling; assay type: biochemical
PRMT1, sequence (Q99873 whole entry): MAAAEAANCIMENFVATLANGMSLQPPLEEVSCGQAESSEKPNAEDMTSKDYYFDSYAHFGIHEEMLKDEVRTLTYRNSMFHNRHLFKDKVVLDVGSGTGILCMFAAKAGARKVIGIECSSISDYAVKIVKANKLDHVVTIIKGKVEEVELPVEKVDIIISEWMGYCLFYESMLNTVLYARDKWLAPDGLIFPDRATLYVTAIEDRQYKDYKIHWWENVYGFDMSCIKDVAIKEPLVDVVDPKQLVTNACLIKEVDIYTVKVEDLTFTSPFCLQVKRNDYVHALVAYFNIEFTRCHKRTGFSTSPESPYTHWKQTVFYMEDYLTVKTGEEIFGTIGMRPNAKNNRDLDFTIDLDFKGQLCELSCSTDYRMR

PRMT5-MEP50 complex = PRMT5-MEP50 complex (Homo sapiens, UniProt O14744); experiment: Methyltransferase profiling; assay type: biochemical
PRMT5-MEP50 complex, sequence (O14744 whole entry): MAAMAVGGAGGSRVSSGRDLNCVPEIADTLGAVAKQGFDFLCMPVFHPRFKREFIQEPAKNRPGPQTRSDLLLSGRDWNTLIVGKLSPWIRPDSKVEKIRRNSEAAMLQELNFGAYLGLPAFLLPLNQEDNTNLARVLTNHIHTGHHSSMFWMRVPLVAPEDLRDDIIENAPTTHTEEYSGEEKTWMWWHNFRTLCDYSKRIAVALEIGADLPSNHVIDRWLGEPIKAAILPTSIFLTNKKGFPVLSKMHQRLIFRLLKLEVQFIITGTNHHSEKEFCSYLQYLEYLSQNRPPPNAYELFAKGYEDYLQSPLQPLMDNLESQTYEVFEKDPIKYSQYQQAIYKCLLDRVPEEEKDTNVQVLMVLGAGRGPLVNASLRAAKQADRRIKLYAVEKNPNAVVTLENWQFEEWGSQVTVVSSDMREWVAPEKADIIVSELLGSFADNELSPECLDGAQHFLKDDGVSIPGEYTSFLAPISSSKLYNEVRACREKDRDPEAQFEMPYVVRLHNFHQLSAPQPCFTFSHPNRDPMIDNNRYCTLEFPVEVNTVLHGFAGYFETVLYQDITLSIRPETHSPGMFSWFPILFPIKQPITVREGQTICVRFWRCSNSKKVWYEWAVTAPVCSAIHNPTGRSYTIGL
PRMT5-MEP50 complex, sequence (Q9BQA1 whole entry partner): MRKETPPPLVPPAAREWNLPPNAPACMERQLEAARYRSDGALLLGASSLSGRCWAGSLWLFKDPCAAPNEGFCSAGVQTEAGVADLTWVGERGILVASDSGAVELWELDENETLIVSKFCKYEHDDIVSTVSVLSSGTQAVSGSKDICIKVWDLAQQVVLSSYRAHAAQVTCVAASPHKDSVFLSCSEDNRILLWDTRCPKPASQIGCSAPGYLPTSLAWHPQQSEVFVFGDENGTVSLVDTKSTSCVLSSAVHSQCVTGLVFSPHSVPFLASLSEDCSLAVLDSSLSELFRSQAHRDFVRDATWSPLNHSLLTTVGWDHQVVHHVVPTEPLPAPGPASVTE

GST-DOT1L [2] = biological target: T2, GST-DOT1L (Homo sapiens, UniProt Q8TEK3); experiment: Saturation transfer difference; assay type: binding; settings: SAH added in five-fold molar excess
T2 sequence (Q8TEK3 1-420): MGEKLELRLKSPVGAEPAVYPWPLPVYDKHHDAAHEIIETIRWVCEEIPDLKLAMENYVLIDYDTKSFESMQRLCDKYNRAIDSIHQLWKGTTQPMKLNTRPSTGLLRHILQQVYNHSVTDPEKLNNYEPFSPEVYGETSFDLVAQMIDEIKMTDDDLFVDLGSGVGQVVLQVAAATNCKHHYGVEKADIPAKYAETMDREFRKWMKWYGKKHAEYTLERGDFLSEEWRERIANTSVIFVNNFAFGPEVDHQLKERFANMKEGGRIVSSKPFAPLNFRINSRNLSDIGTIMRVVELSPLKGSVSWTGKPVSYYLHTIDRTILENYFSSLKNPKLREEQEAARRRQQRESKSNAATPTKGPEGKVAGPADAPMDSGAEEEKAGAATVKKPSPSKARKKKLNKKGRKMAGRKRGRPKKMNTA

[3] = tested on: H3K4, H3K27, H3K36, H4K20 methylation; experiment: Western blot analysis of other histone methylation marks in MLL-AF9 cells
H3K79 methylation = experiment: Western blot analysis of H3K79 methylation in MLL-AF9 cells
PRMT5 Alone = PRMT5 Alone (Homo sapiens, UniProt O14744); experiment: biochemical
PRMT5 Alone, sequence (O14744 whole entry): as the sequence (O14744 whole entry) above

E2A-HLF cells = settings: DOT1L-independent negative control line
[4] = tested on: MLL-AF9 transformed cells
[5] = tested on: MLL-AF9 transformed cells; settings: various doses
GST-DOT1L [6] = biological target: T2, GST-DOT1L; experiment: In vitro radio-isotope labeling DOT1L histone methyltransferase; settings: ratio of IC50 values, initial radio-isotope assays

SUV39H2, sequence (Q9H5I1 whole entry): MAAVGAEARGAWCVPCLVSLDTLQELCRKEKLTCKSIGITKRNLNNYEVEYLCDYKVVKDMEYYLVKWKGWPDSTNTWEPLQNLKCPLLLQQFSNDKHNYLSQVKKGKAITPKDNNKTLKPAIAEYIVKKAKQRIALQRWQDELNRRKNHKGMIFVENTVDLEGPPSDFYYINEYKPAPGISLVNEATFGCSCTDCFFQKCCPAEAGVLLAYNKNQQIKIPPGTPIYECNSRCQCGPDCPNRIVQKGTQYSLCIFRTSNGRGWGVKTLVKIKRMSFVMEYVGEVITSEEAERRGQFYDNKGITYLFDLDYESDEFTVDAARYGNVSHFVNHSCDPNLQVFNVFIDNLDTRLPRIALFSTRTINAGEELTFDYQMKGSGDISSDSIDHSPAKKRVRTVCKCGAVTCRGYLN

Compound: CC(C)(C)c1ccc(NC(=O)c2ncn(CC(=O)NCc3ccc4[nH]ncc4c3)n2)cc1 [Compound 23, 1-(2-(((1H-indazol-5-yl)methyl)amino)-2-oxoethyl)-N-(4-(tert-butyl)phenyl)-1H-1,2,4-triazole-3-carboxamide]
- IC50 (SUV39H2): > 250 µM

Compound: CC(C)(C)c1ccc(NC(=O)c2ncn(CC(=O)NCc3ccc4c(c3)OCO4)n2)cc1 [Compound 22, 1-(2-((benzo[d][1,3]dioxol-5-ylmethyl)amino)-2-oxoethyl)-N-(4-(tert-butyl)phenyl)-1H-1,2,4-triazole-3-carboxamide]
- activity versus all MTs tested in the profiling assays [1]: inactive

Compound: Nc1ncnc2c1ncn2[C@@H]1O[C@H](CSCC[C@H](N)C(=O)O)[C@@H](O)[C@H]1O [SAH, S-adenosylhomocysteine, reference compound]
- IC50 (PRMT3): 1.44 µM

Compound: Cc1ccc(NC(=O)c2ncn(CC(=O)NCc3ccc4c(N)nccc4c3)n2)cc1C [Compound 19, 1-(2-(((1-aminoisoquinolin-6-yl)methyl)amino)-2-oxoethyl)-N-(3,4-dimethylphenyl)-1H-1,2,4-triazole-3-carboxamide]
- IC50 (PRMT6): > 250 µM
- IC50 (PRMT4): > 250 µM
- IC50 (PRMT1): > 250 µM
- IC50 (PRMT5-MEP50 complex): > 250 µM

Compound: Cc1ccc(NC(=O)c2ncn(CC(=O)NCCn3ccc4c(N)ncnc43)n2)cc1C [Compound 20, 1-(2-((2-(4-amino-7H-pyrrolo[2,3-d]pyrimidin-7-yl)ethyl)amino)-2-oxoethyl)-N-(3,4-dimethylphenyl)-1H-1,2,4-triazole-3-carboxamide]
- IC50 (SUV39H2): > 250 µM

Compound: Nc1ncnc2c1ncn2[C@@H]1O[C@H](CNCc2ccc(OCC(=O)Nc3ccccn3)cc2)[C@@H](O)[C@H]1O [Compound 2]
- competitive STD NMR with SAH (GST-DOT1L [2]): competed off by SAH
- H3K4, H3K27, and H3K36 trimethylation states [3]: not changed
- cellular H3K79 methylation (H3K79 methylation; time course of 3, 6 and 9 days): inhibits cellular H3K79 dimethylation; also recorded: reduced

Compound: CC(C)(C)c1ccc(NC(=O)c2ncn(CC(=O)NCc3ccc4c(N)nccc4c3)n2)cc1 [Compound 24, 1-(2-(((1-aminoisoquinolin-6-yl)methyl)amino)-2-oxoethyl)-N-(4-(tert-butyl)phenyl)-1H-1,2,4-triazole-3-carboxamide]
- IC50 (PRMT6): > 250 µM
- IC50 (SUV39H2): > 250 µM
- IC50 (PRMT4): > 250 µM
- IC50 (PRMT1): > 250 µM
- IC50 (PRMT5 Alone): 227 µM
- IC50 (PRMT5-MEP50 complex): > 250 µM
- IC50 (PRMT3): 41.1 µM

Compound: CC(C)(C)c1ccc(NC(=O)c2ncn(CC(=O)NCCn3ccc4c(N)ncnc43)n2)cc1 [Compound 25, 1-(2-((2-(4-amino-7H-pyrrolo[2,3-d]pyrimidin-7-yl)ethyl)amino)-2-oxoethyl)-N-(4-(tert-butyl)phenyl)-1H-1,2,4-triazole-3-carboxamide]
- IC50 (PRMT6): > 250 µM
- IC50 (SUV39H2): > 250 µM
- IC50 (PRMT4): > 250 µM
- IC50 (PRMT1): > 250 µM
- H3K4me3 and H4K20me2 ([3]; day 6): no significant changes
- effect on the growth of E2A-HLF cells (E2A-HLF cells): without showing any effect on the growth
- IC50 (PRMT5 Alone): 187 µM
- IC50 (PRMT5-MEP50 complex): > 250 µM
- cellular H3K79 methylation (H3K79 methylation; day 6): dose-dependent inhibition
- cellular H3K79 methylation (H3K79 methylation; day 9, 30 μM): complete inhibition
- cellular H3K79 methylation (H3K79 methylation; day 9, 10 and 3 μM): significant decrease
- IC50 (PRMT3): 149 µM
- cell growth inhibition of MLL-AF9 cells ([4]; day 11 at 30 μM): complete cell growth inhibition
- killing of MLL-AF9 cells versus E2A-HLF cells ([4]; murine established leukemia cell lines): selectively killed MLL-AF9
- cell differentiation, Wright-Giemsa stain [5]: dose-dependent cell differentiation

Compound: Cc1ccc(NC(=O)c2ncn(CC(=O)NCc3ccc4c(c3)OCO4)n2)cc1C [Compound 9, 1-(2-((benzo[d][1,3]dioxol-5-ylmethyl)amino)-2-oxoethyl)-N-(3,4-dimethylphenyl)-1H-1,2,4-triazole-3-carboxamide]
- fold better activity than 8 (GST-DOT1L [6]): 1.5 fold

Compound: Nc1nccc2cc(CNC(=O)Cn3cnc(C(=O)NC4CCCCC4)n3)ccc12 [Compound 28, 1-(2-(((1-aminoisoquinolin-6-yl)methyl)amino)-2-oxoethyl)-N-cyclohexyl-1H-1,2,4-triazole-3-carboxamide]
- IC50 (PRMT6): > 250 µM
- IC50 (PRMT4): > 250 µM
- IC50 (PRMT1): > 250 µM
- IC50 (PRMT5-MEP50 complex): > 250 µM
